Measured values taken from patent US20240408099A1, “COMBINATION […] OF KRAS G12D INHIBITORS WITH Pan ErbB FAMILY INHIBITORS” (MIRATI THERAPEUTICS, INC., priority 2021, published 2024).

Tested on: HPAC cells
Assay: HPAC TGI 73 pancreatic cancer xenograft, tumor volumes
Format: in vivo, nude/nude mice
Settings: for Average Tumor Volumes: 50 mg/kg PO daily
Method: Immunocompromised nude/nude mice are inoculated in the right hind flank with cells harboring a KRas G12D mutation. When tumor volumes reach between 200-400 mm^3 in size, the mice are divided into four to five groups of 5 mice each. The first group is administered vehicle only. […] The fourth or last groups are administered the single agent dose of the KRas G12D inhibitor using the twice daily schedule and/or the 2 sequential days followed by 5 days off schedule in combination with the single agent dose of one of the EGFR inhibitors. The treatment period varies from cell line to cell line but typically is between 15-40 days. Tumor volumes are measured using a caliper every two-three days and tumor volumes are calculated by the formula: […].
Experimental Procedures. 20 nude/nude mice were inoculated with HPAC cells in the right hind flank. When the tumors reached ˜200 mm^3 four treatment groups were established with five mice per group.

C#Cc1cccc(Nc2ncnc3cc(OCCOC)c(OCCOC)cc23)c1 [Erlotinib, [6,7-Bis-(2-methoxy-ethoxy)-quinazolin-4-yl]-(3-ethynyl-phenyl)-amine, reference compound]
Average Tumor Volumes (Study Day 0): 197.582 mm^3
Average Tumor Volumes (Study Day 3): 320.132 mm^3
Average Tumor Volumes (Study Day 7): 421.908 mm^3
Average Tumor Volumes (Study Day 10): 587.79 mm^3
Average Tumor Volumes (Study Day 14): 705.688 mm^3
Average Tumor Volumes (Study Day 17): 856.214 mm^3
Average Tumor Volumes (Study Day 21): 945.702 mm^3
tumor growth inhibition (50 mg/kg daily, single agent, Day 21): 35%
